Laboratory results reported in ChEMBL document CHEMBL1142342, “Lignans from the fruits of Forsythia suspensa” (Bioorg Med Chem Lett, 2008).
Activity calls are given as the source filed them. The rule behind the calls is not given here.

Key:
[1] = system: LLC-PK1; assay: Protective effect against 3-morpholinosydnonimine-induced cell death in pig LLC-PK1 cells after 1 hr by MTT assay; assay type: functional, cell-based; conditions: Sus scrofa
[2] = system: LLC-PK1; assay: Protective effect against 3-morpholinosydnonimine-induced cell death in pig LLC-PK1 cells assessed as viability at 50 uM after 1 hr by MTT assay; assay type: functional; conditions: Sus scrofa, LLC-PK1, 1 h; read-out: Activity
[3] = system: LLC-PK1; assay: Cytotoxicity against pig LLC-PK1 cells; assay type: cell-based, Sus scrofa
[4] = system: LLC-PK1; assay: Inhibition of 3-morpholinosydnonimine-induced LDH release in pig LLC-PK1 cells at 50 uM after 24 hrs; assay type: functional, cell-based; conditions: Sus scrofa
[5] = system: LLC-PK1; assay: Inhibition of 3-morpholinosdynonimine-induced LDH release in pig LLC-PK1 cells at 10 uM after 24 hrs; assay type: functional, cell-based; conditions: Sus scrofa
[6] = system: LLC-PK1; assay: Inhibition of 3-morpholinosydnonimine-induced LDH release in pig LLC-PK1 cells after 24 hrs; assay type: functional, cell-based; conditions: Sus scrofa

| SMILES | Activity [1] | viability at 50 µM [2] | Activity [3] | Activity [4] | Activity [5] | Activity [6] |
| --- | --- | --- | --- | --- | --- | --- |
| COc1cc(O)cc([C@H]2OC[C@H](C(=O)c3ccc(O)c(OC)c3)[C@@H]2CO)c1 [FORSYTHIALAN A] | Dose-dependent effect | 95% | Non-toxic | Active | Active |  |
| COc1cc(O)cc([C@H]2OC[C@H](C(=O)c3ccc(OC)c(OC)c3)[C@@H]2CO)c1 [FORSYTHIALAN B] | Dose-dependent effect | 85% | Non-toxic |  |  | Active |
